Reference: PMC6095594, “Pre-clinical evaluation of quinoxaline-derived chalcones in tuberculosis” (PLoS ONE, 2018)
Values after ≈ are worked out from the molar mass of the structure shown. Read-outs that look alike come from different tables or passages of the source.

Key:
[1] = system: M. tuberculosis H37Rv strain; assay: microbe, parasite or virus in culture; format: cell-based
[2] = system: M. tuberculosis pan-susceptible clinical isolate CDCT-28; assay: microbe, parasite or virus in culture; format: cell-based; conditions: Mycobacterium tuberculosis
[3] = system: M. tuberculosis pan-susceptible clinical isolate CDCT-28; conditions: cited from earlier work
[4] = system: M. tuberculosis H37Rv strain; parameters: method as in Abbadi, 2018; conditions: ref Abbadi, 2018; cited from earlier work
[5] = system: M. tuberculosis pNIP::control; assay: microbe, parasite or virus in culture; format: cell-based; conditions: Mycobacterium tuberculosis; pNIP::control (empty vector)
M. tuberculosis H37Rv = assay: Checkerboard assay, two-drug combination with REMA readout; format: cell-based, Mycobacterium tuberculosis; conditions: for MIC: Mycobacterium tuberculosis, read-out: MIC Alone, checkerboard, drug alone, three independent experiments
[6] = system: M. tuberculosis pNIP::KatG(WT); assay: microbe, parasite or virus in culture; format: cell-based; conditions: Mycobacterium tuberculosis
S. typhimurium TA1535 = assay: Salmonella/microsome mutagenicity test
Method: (§1) Salmonella typhimurium strains TA98, TA97a, TA100, TA1535, and TA102 were provided by MOLTOX® (Molecular Toxicology Inc. USA). Mutagenicity was assayed according to the pre-incubation procedure following the recommendation described in Mortelmans and Zieger (2000). […] Briefly, 100 μL of test bacterial cultures (1–2 x 10^9 cells/mL) were incubated at 37 °C with different concentrations of N9 (10–400 μg/plate) in the presence or absence of S9 mix, for 20 min, without shaking. […] Plates were incubated in the dark at 37 °C for 48 h before counting the revertant colonies. Assays were repeated twice and the plating for each concentration was conducted in triplicate. Data were evaluated by one-way analysis of variance (ANOVA), followed by Dunnett's post-test, using GraphPad Prism 5.0 (GraphPad, San Diego, CA, USA).

S. typhimurium TA100 = assay: Salmonella/microsome mutagenicity test
Method: as §1

S. typhimurium TA102 = assay: Salmonella/microsome mutagenicity test; conditions: TA102, +S9, positive control 5 μg/plate
Method: (§2) Salmonella typhimurium strains TA98, TA97a, TA100, TA1535, and TA102 were provided by MOLTOX® (Molecular Toxicology Inc. USA). Mutagenicity was assayed according to the pre-incubation procedure following the recommendation described in Mortelmans and Zieger (2000). […] Briefly, 100 μL of test bacterial cultures (1–2 x 10^9 cells/mL) were incubated at 37 °C with different concentrations of N9 (10–400 μg/plate) in the presence or absence of S9 mix, for 20 min, without shaking. […] 2-aminoanthracene (2-AA, 5 μg/plate) was used as positive control for all strains in the presence of metabolic activation (with S9 mix). […] Plates were incubated in the dark at 37 °C for 48 h before counting the revertant colonies. Assays were repeated twice and the plating for each concentration was conducted in triplicate. Data were evaluated by one-way analysis of variance (ANOVA), followed by Dunnett's post-test, using GraphPad Prism 5.0 (GraphPad, San Diego, CA, USA).

S. typhimurium TA98 = assay: Salmonella/microsome mutagenicity test; conditions: TA98, +S9, positive control 5 μg/plate
Method: as §2

S. typhimurium TA97a = assay: Salmonella/microsome mutagenicity test; conditions: +S9, positive control 5 μg/plate
Method: as §2

[7] = Mycobacterium tuberculosis, H37RV, read-out: MIC
[8] = TA1535, +S9, positive control 5 μg/plate
[9] = TA100, +S9, positive control 5 μg/plate
[10] = TA1535, -S9, positive control 1 μg/plate
[11] = TA100, -S9, positive control 1 μg/plate

Q: With `O=C(/C=C/c1ccc2nccnc2c1)c1ccc(Br)cc1` [N4] as the compound, how does the MIC [1, 7] read?
A: The MIC was over 25 µg/mL.

Q: For `COc1cc(C(=O)/C=C/c2ccc3nccnc3c2)cc(OC)c1OC` [N15], which MIC [2] is on record?
A: The MIC was 3.13 µg/mL (≈ 8.93 µM).

Q: What about the MIC ([1]; H37Rv) of the same compound?
A: Its MIC is 6.25 µg/mL (≈ 17.8 µM).

Q: And the MIC [1, 7]?
A: The MIC was 3.13 to 12.5 µg/mL (≈ 8.93 to 35.7 µM).

Q: For `N#Cc1ccc(C(=O)/C=C/c2ccc3nccnc3c2)cc1` [N33], which MIC [1, 7] is on record?
A: The MIC was over 25 µg/mL.

Q: What does the source list for `CO[C@H]1/C=C/O[C@@]2(C)Oc3c(C)c(O)c4c(O)c(c(/C=N/N5CCN(C)CC5)c(O)c4c3C2=O)NC(=O)/C(C)=C\C=C\[C@H](C)[C@H](O)[C@@H](C)[C@@H](O)[C@@H](C)[C@H](OC(C)=O)[C@@H]1C` [RIF, Rifampicin]?
A: MIC [3]: <0.2 µg/mL; MIC [4]: <0.2 µg/mL

Q: Which results are given for `NNC(=O)c1ccncc1` [INH, isoniazid, reference compound]?
A: MIC [5]: < 0.2 µg/mL; MIC Alone (M. tuberculosis H37Rv; H37RV): 0.16 µg/mL; MIC (M. tuberculosis H37Rv; H37RV): 0.31 µg/mL; MIC [2]: 0.39 µg/mL (≈ 2.84 µM); MIC [1, 7]: 0.39 µg/mL (≈ 2.84 µM); MIC [6]: < 0.2 µg/mL

Q: For `COc1ccccc1C(=O)/C=C/c1ccc2nccnc2c1` [N19], which MIC [1, 7] is on record?
A: The MIC was over 25 µg/mL.

Q: For `COc1ccc(C(=O)/C=C/c2ccc3nccnc3c2)c(OC)c1OC` [N36], which MIC [1, 7] is on record?
A: The MIC was 25 µg/mL (≈ 71.4 µM).

Q: Which MIC [1, 7] does the source give for `O=C(/C=C/c1ccc2nccnc2c1)c1ccc2c(c1)OCO2` [N3] here?
A: Its MIC is over 25 µg/mL.

Q: With `Nc1ccc2cc3ccccc3cc2c1` [2-AA, 2-aminoanthracene, reference compound] as the compound, how does the “MI: mutagenic index” value (S. typhimurium TA1535; [8]) read?
A: The value was 6.96.

Q: And the Number of revertants/plate (S. typhimurium TA1535; [8])?
A: The Number of revertants/plate was 58.0±12.7 Rev/plate.

Q: What about the “MI: mutagenic index” value (S. typhimurium TA100; [9]) of the same compound?
A: The value was 11.03.

Q: What about the Number of revertants/plate (S. typhimurium TA100; [9]) of the same compound?
A: Its Number of revertants/plate is 1279.0±50.2 Rev/plate.

Q: And the “MI: mutagenic index” value (S. typhimurium TA102)?
A: Its value is 3.62.

Q: And the Number of revertants/plate (S. typhimurium TA102)?
A: Its Number of revertants/plate is 1354.0±21.1 Rev/plate.

Q: What about the “MI: mutagenic index” value (S. typhimurium TA98) of the same compound?
A: The value was 39.65.

Q: What about the Number of revertants/plate (S. typhimurium TA98) of the same compound?
A: The Number of revertants/plate was 1586.0±161.2 Rev/plate.

Q: What about the “MI: mutagenic index” value (S. typhimurium TA97a) of the same compound?
A: The value was 6.44.

Q: And the Number of revertants/plate (S. typhimurium TA97a)?
A: Its Number of revertants/plate is 742.0±59.4 Rev/plate.

Q: For `O=C(/C=C/c1ccc2nccnc2c1)c1ccc([N+](=O)[O-])cc1` [N7], which MIC [1, 7] is on record?
A: The MIC was over 25 µg/mL.

Q: For `COc1cccc(C(=O)/C=C/c2ccc3nccnc3c2)c1` [N23], which MIC [2] is on record?
A: Its MIC is 2.5 µg/mL (≈ 8.61 µM).

Q: What about the MIC ([1]; H37Rv) of the same compound?
A: Its MIC is 5 µg/mL (≈ 17.2 µM).

Q: What about the MIC [1, 7] of the same compound?
A: Its MIC is 3.13 to 12.5 µg/mL (≈ 10.8 to 43.1 µM).

Q: Which MIC [1, 7] does the source give for `N#Cc1cccc(C(=O)/C=C/c2ccc3nccnc3c2)c1` [N34] here?
A: Its MIC is over 25 µg/mL.

Q: For `[N-]=[N+]=[N-].[Na+]` [NaN3, sodium azide, reference compound], which “MI: mutagenic index” value (S. typhimurium TA1535; [10]) is on record?
A: Its value is 100.0.

Q: What about the Number of revertants/plate (S. typhimurium TA1535; [10]) of the same compound?
A: The Number of revertants/plate was 1133.0±179.6 Rev/plate.

Q: What about the “MI: mutagenic index” value (S. typhimurium TA100; [11]) of the same compound?
A: The value was 6.03.

Q: What about the Number of revertants/plate (S. typhimurium TA100; [11]) of the same compound?
A: The Number of revertants/plate was 695.5±40.3 Rev/plate.

Q: With `O=C(/C=C/c1ccc2nccnc2c1)c1ccccc1O` [N6] as the compound, how does the MIC [1, 7] read?
A: Its MIC is over 5 µg/mL.

Q: With `COc1cc(C(=O)/C=C/c2ccc3nccnc3c2)cc(OC)c1O` [N20] as the compound, how does the MIC [1, 7] read?
A: Its MIC is over 25 µg/mL.

Q: For `COc1cc(OC)c(C(=O)/C=C/c2ccc3nccnc3c2)cc1OC` [N17], which MIC [1, 7] is on record?
A: Its MIC is over 25 µg/mL.

Q: What does the source list for `COc1c(N2C[C@@H]3CCCN[C@@H]3C2)c(F)cc2c(=O)c(C(=O)O)cn(C3CC3)c12` [MFX, moxifloxacin, reference compound]?
A: MIC (M. tuberculosis H37Rv; H37RV): 0.15 µg/mL; Improvement of MIC of MFX in the presence of N9 (M. tuberculosis H37Rv; all three experiments): 4 fold; MIC [4]: <0.2 µg/mL
